Measured values taken from ChEMBL document CHEMBL1133555 (J Med Chem, 2000).
pKi: −log10 of the molar value.

Columns and labels:
[1] = target: Sodium-dependent serotonin transporter (Rattus norvegicus, UniProt P31652); assay: Binding affinity for serotonin transporter labeled with [125 I]RTI-55
[2] = target: Sodium-dependent dopamine transporter (Rattus norvegicus, UniProt P23977); assay: Binding affinity for dopamine transporter (DAT) labeled with [125 I]RTI-55
[3] = target: Norepinephrine transporter (Rattus norvegicus, UniProt Q9WTR4); assay: Binding affinity for norepinephrine transporter (NET) labeled with [3H]nisoxetine
Norepinephrine transporter, sequence (Q9WTR4 whole entry): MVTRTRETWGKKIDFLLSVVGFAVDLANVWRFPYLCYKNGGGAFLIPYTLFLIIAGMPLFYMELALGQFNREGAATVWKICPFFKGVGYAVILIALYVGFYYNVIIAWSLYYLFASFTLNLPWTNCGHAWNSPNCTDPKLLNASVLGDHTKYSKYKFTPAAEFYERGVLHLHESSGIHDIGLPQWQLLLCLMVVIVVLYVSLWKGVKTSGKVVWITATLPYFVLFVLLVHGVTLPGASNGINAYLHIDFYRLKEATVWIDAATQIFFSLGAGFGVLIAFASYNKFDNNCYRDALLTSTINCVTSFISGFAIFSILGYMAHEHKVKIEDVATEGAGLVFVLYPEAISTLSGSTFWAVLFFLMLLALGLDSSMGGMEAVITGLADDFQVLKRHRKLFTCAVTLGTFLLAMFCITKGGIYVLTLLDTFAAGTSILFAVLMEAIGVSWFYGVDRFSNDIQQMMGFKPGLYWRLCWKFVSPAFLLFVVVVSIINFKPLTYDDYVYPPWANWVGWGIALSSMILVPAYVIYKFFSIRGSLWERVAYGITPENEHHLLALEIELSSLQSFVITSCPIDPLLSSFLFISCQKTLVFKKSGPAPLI

Sodium-dependent serotonin transporter, sequence (P31652 whole entry): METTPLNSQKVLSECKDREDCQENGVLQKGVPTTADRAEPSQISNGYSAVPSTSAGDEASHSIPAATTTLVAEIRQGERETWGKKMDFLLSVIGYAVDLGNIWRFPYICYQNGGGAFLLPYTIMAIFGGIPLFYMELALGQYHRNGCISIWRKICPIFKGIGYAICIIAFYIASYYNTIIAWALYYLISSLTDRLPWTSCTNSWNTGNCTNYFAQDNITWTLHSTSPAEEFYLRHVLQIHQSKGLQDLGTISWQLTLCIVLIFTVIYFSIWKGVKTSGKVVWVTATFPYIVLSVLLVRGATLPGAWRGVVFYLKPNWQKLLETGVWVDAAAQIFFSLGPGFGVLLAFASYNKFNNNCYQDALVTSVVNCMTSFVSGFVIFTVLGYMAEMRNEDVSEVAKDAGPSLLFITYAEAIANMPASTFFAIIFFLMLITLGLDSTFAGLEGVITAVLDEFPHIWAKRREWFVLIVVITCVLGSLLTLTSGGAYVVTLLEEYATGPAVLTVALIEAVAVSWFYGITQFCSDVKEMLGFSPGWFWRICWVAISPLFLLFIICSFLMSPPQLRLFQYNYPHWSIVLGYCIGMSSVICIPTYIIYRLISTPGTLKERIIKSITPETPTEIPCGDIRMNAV
Sodium-dependent dopamine transporter, sequence (P23977 whole entry): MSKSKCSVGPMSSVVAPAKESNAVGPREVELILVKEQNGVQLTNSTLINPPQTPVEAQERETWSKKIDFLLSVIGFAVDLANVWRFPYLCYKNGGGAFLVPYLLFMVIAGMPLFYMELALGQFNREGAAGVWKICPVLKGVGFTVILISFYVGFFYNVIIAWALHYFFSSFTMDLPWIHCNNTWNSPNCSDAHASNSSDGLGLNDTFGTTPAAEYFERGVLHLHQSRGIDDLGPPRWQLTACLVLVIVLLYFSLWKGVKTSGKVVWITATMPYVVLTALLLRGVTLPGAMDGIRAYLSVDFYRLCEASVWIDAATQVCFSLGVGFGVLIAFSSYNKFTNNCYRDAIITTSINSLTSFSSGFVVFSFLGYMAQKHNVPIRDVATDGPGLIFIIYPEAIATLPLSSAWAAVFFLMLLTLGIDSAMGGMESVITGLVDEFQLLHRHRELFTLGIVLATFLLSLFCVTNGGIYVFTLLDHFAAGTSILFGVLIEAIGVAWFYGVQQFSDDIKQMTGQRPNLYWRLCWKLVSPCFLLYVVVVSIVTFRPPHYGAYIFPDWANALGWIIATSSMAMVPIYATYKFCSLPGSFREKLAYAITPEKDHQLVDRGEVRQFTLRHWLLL

Compound	pKi [1]	pKi [2]	pKi [3]
CN[C@@H]1CC(c2ccc(Cl)c(Cl)c2)c2cccc(OC)c21 (stereo partly specified)	6.97	7.49	7.03
CN[C@@H]1CC(c2ccc(Cl)c(Cl)c2)c2cc(OC)c(OC)cc21 (stereo partly specified)	7.21	8.44	6.99
CN[C@@H]1CC(c2ccc(Cl)c(Cl)c2)c2c(OC)cccc21 (stereo partly specified)	7.20	8.77	7.57
CN[C@@H]1CC(c2ccc(Cl)c(Cl)c2)c2cc(OC)ccc21 (stereo partly specified)	8.19	8.03	7.12
CN[C@@H]1CC(c2ccc(Cl)c(Cl)c2)c2ccc(OC)cc21 (stereo partly specified)	8.96	7.94	7.82
CN[C@@H]1CC(c2ccc(Cl)c(Cl)c2OC)c2ccc(OC)cc21 (stereo partly specified)	8.25	6.10	6.91
CN[C@H]1c2cc(OC)ccc2C(c2ccc(Cl)c(Cl)c2)[C@@H]1O (stereo partly specified)	8.09	5.95	5.77
